Laboratory results: patent US7112680B2, “Heterocyclic hydrazones for use as anti-cancer agents” (Austria Wirtschaftsservice Gesellschaft MIT Beschrankter …, priority 2000, dated 2006)
Where two headings read alike, the source gives them in different places.

Legend:
[1] = tested on: HT-29 (colon adenocarcinoma); assay: Inhibition of tumor cell growth, SRB-assay, HT-29; type: cell-based, human
Experimental: (§1) The KB cell lines were grown in Dulbecco's modified Eagle's medium (4,5 g glucose/l). To the cultures of KB-C1 cells 1 μg of colchicine/ml, and to the hydroxyurea-resistant KB-HU cells 1 mM hydroxyurea was added every other week. […] 3,000 - 10,000 cells in 200 μl medium were seeded per well into 96-well plates. […] Approximately 10,000 cells per 100 μl were seeded in 96-well plates. […] The substances were dissolved in dimethylsulfoxide (DMSO). […] Subsequently, the samples were fixed, washed, and the absorption was determined by a microplate reader.

[2] = tested on: HeLa (epitheloid cervix carcinoma); assay: Inhibition of tumor cell growth, SRB-assay, HeLa; type: cell-based, human
[3] = tested on: K562 (chronic myelogenous leukemia); assay: Inhibition of tumor cell growth, K562; type: cell-based, human; conditions: Table 1; 72 hours
Experimental: (§2) In order to obtain information about the growth-inhibiting action on tumor cells, the inhibition of the growth of the following human tumor cells was determined: Burkitt's lymphoma (CA 46, ATCC No. CRL 1648), CCRF-CEM (acute lymphoblastic leukemia, ATCC No. CCL 119), K562 (chronic myelogenous leukemia, ATTC No. CCL 243), HeLa (epitheloid cervix carcinoma, ATCC No. CCL 2), MEXF 276L (melanoma), HT-29 (colon adenocarcinoma, ATCC No. HTB 38), KB-3-1 (human oral epidermoid carcinoma, CTCC No. CCL 17), KB-HU hydroxyurea-resistant, multidrug-resistant KB-C1 cells (Akiyama et al, Cell. Mol Genet., 11:117–126, 1985). Burkitt's, CCRF-CEM, HeLa and MEXF 276L cells were grown in RPMI 1640, HT-29 cells in McCoy's 5A medium. The KB cell lines were grown in Dulbecco's modified Eagle's medium (4,5 g glucose/l). To the cultures of KB-C1 cells 1 μg of colchicine/ml, and to the hydroxyurea-resistant KB-HU cells 1 mM hydroxyurea was added every other week. The media were supplemented with 10% fetal calf serum (except Burkitt's lymphoma cells with 15%), 2 mM glutamine, 50 units/ml penicillin and 50 μg/ml streptomycin. Inhibition of growth of HeLa, HT-29, KB and MEXF 276L cells was detected by the SRB-assay (Skehan et al, J. Natl Cancer Inst., 82:1107–1112, 1990). 3,000 - 10,000 cells in 200 μl medium were seeded per well into 96-well plates. Dose-response curves for CCRF-CEM and Burkitt's lymphoma cells were effected by an MTT-assay (Mosman, J. Immunol Methods, 65:55–63, 1983) from Boehringer Mannheim, Mannheim, Germany. Approximately 10,000 cells per 100 μl were seeded in 96-well plates. After an initial incubation of four hours, various substance concentrations were added, and the cells were incubated at 37° C. in a water-saturated atmosphere of 95% air and 5% CO2 for 72 hours. The substances were dissolved in dimethylsulfoxide (DMSO). The concentration of DMSO was 0.5%, and this was not toxic to the cells. Subsequently, the samples were fixed, washed, and the absorption was determined by a microplate reader.

[4] = tested on: Burkitt's lymphoma (CA 46, ATCC No. CRL 1648); assay: Inhibition of tumor cell growth, MTT-assay, Burkitt's lymphoma; type: cell-based, human
Experimental: as §1

[5] = tested on: CCRF-CEM (acute lymphoblastic leukemia); assay: Inhibition of tumor cell growth, MTT-assay, CCRF-CEM; type: cell-based, human; conditions: Table 2, 72 hours
MEXF 276L (melanoma) = assay: Inhibition of tumor cell growth, SRB-assay, MEXF 276L; type: cell-based, human; conditions: Table 2, 72 hours
Experimental: as §1

[6] = tested on: KB-3-1 (human oral epidermoid carcinoma); assay: Inhibition of tumor cell growth, SRB-assay, KB-3-1; type: cell-based; conditions: read-out: In vitro-activity against human tumor cell lines, KB-3-1
Experimental: as §2

[7] = tested on: KB-HU hydroxyurea-resistant cells; assay: Inhibition of tumor cell growth, SRB-assay, KB-HU; type: cell-based, human; conditions: Table 4, 72 hours, read-out: In vitro-activity against human tumor cell lines, KB-HU
Experimental: as §2

[8] = tested on: multidrug-resistant KB-C1 cells; assay: Inhibition of tumor cell growth, SRB-assay, KB-C1; type: cell-based, human; conditions: read-out: In vitro-activity against human tumor cell lines, KB-C1
Experimental: as §2

[9] = tested on: human tumor grafts (cell lines of FIG. 1); assay: Colony forming assay (two-layer soft agar); type: cell-based; conditions: for IC50 / IC90 / Mean IC70: mean values of all cell lines tested in FIG. 1, continuous exposure 3 to 6 days
Experimental: An excellent correlation of drug response in patients and the colony forming assay has been found (Scholz et al, Eur. J. Cancer 25:901–905, 1990). Solid human tumors were grown as grafts in nude mice, removed from the latter, mechanically comminuted and subsequently incubated in an enzyme cocktail consisting of collagenase (1.2–1.8 U/ml), DNAse (375 U/ml) and hyaluronidase (29 U/ml) in RPMI 1640 medium at 37° C. for 30 minutes. The cell mixture was passed through sieves of 200 μm and 50 μm mesh size and washed thereafter twice with PBS (phosphate buffered saline). The percentage of live cells was determined using a Neubauer counting chamber and trypan blue staining.
The colony forming assay was performed according to a two-layer agar technique introduced and modified by Hamburger and Salmon (Hamburger and Salmon, Science, 197:461–463, 1977). The bottom layer consisted of 0.2 ml of Iscoves's Modified Dulbecco's medium with 20% fetal calf serum and 0.75% agar. 8×10^3 to 1.6×10^4 cells were added to the same medium and 0.4% agar and plated in 24-multiwell plates onto the base layer. One day after the plating (with continuous exposure), the substances were added in 0.2 ml medium. Each plate included six controls containing the solvent only, and the treated groups contained 6 concentrations of the substances, each in triplicate. Cultures were incubated at 37° C. and 7% CO2 in a water-saturated atmosphere for 3 to 6 days, depending on the doubling time of the tumor cells. At the time of maximum colony formation with a size of […], counts were performed with an automatic image analysis system. 24 h prior to counting, live colonies were stained with a sterile aqueous solution of 2-(4-iodophenyl)-3-(4-nitrophenyl)-5-phenyltetrazolium chloride (1 mg/ml, 100 μl/well). The results of the tests are given in FIG. 1, and in the following Table 5, respectively. […] Columns pointing towards the right show a slighter than average activity.

[10] = Table 2, 72 hours, read-out: IC50 HT-29 (converted)
[11] = Table 2, 72 hours, read-out: IC50 Burkitts
[12] = Table 2, 72 hours, read-out: IC50 HeLa (converted)
[13] = Table 4, 72 hours, read-out: In vitro-activity against human tumor cell lines, HT-29
[14] = Table 4, 72 hours, read-out: In vitro-activity against human tumor cell lines, Burkitts
[15] = Table 4, 72 hours, read-out: In vitro-activity against human tumor cell lines, HeLa

SMILES | IC50 [1, 10] [nM] | IC50 [4, 11] [nM] | IC50 [2, 12] [nM] | IC50 [5] [nM] | IC50 (MEXF 276L (melanoma); read-out: IC50 MEXF276L) [nM] | also measured
Cn1c(NN=C(Cc2ccccc2)c2ccccn2)nc2ccccc21 [Ia-33] | – | – | – | – | – | IC50 ([1]; Table 1, 72 hours, read-out: IC50 HT-29 (converted)): 14100 nM; IC50 ([2]; Table 1, 72 hours, read-out: IC50 HeLa (converted)): 24 nM; IC50 [3]: 120 nM
CC(=NNc1nc2ccccc2[nH]1)c1cccnn1 [Ib-1] | 2060 | 840 | 1230 | 980 | 2140 | –
CC(=NNc1nc2ccccc2o1)c1cccnn1 [Ib-3] | 1770 | 1340 | 1250 | 720 | 1960 | –
CC(=NNc1nc2ccccc2[nH]1)c1ccc(C)nn1 [Ib-4] | 1960 | 1870 | 1990 | 1300 | 2360 | –
CC(=NNc1nc2ccccc2o1)c1ccc(C)nn1 [Ib-5] | 1040 | 840 | 1610 | 460 | 2250 | –
CC(=NNc1nc2ccccc2[nH]1)c1ccncn1 [Ib-6, 1-(4-Pyrimidinyl)-1-ethanone-1-(1H-benzo[d]imidazol-2-yl)-hydrazone] | – | – | – | – | – | IC50 ([1]; Homo sapiens, HT-29, Table 2, 72 hours, read-out: IC50 HT-29 (converted)): 570 nM; IC50 ([4]; Homo sapiens, CA46, Table 2, 72 hours, read-out: IC50 Burkitts): 560 nM; IC50 ([2]; Homo sapiens, HeLa, Table 2, 72 hours, read-out: IC50 HeLa (converted)): 880 nM; IC50 ([5]; Homo sapiens, CCRF-CEM): 410 nM; IC50 (MEXF 276L (melanoma); Homo sapiens, MEXF276L): 910 nM
CC(=NNc1nc2ccccc2o1)c1ccncn1 [Ib-8] | 230 | 140 | 410 | 340 | 1300 | –
CC(=NNc1nc2ccccc2[nH]1)c1cc(C)ncn1 [Ib-9] | 360 | 390 | 890 | 660 | 1140 | –
CC(=NNc1nc2ccccc2o1)c1cc(C)ncn1 [Ib-10] | 120 | 40 | 210 | 220 | 1220 | –
CC(=NNc1nc2ccccc2[nH]1)c1nccnc1C [Ib-14] | 2230 | 3370 | 3530 | 2170 | 4240 | –
CC(=NNc1nc2ccccc2o1)c1nccnc1C [Ib-15] | 2150 | 910 | 1870 | 1300 | 5380 | –
CC(=NNc1nc2ccccc2[nH]1)c1cnc(C)cn1 [Ib-16] | 880 | 1220 | 1490 | 840 | 2000 | –
CC(=NNc1nc2ccccc2o1)c1cnc(C)cn1 [Ib-17] | 280 | 150 | 370 | 620 | 1660 | –
CC(=NNc1nc2ccccc2n1C)c1cc(Cl)ccn1 [Id-4, 1-(4-Chloro-2-pyridyl)-1-ethanone-1-(1-methyl-1H-benzo[d]imidazol-2-yl)-hydrazone] | – | – | – | – | – | IC50 ([6]; Homo sapiens, KB 3-1, Table 4, 72 hours): 71 nM; IC50 ([1]; Homo sapiens, HT-29, Table 4, 72 hours, read-out: In vitro-activity against human tumor cell lines, HT-29): 520 nM; IC50 ([7]; Homo sapiens): 270 nM; IC50 ([8]; Homo sapiens, KBC-1, Table 4, 72 hours): 90 nM; IC50 ([4]; Homo sapiens, CA46, Table 4, 72 hours, read-out: In vitro-activity against human tumor cell lines, Burkitts): 4 nM; IC50 ([2]; Homo sapiens, HeLa, Table 4, 72 hours, read-out: In vitro-activity against human tumor cell lines, HeLa): 170 nM; IC50 ([9]; Homo sapiens): 301 nM; IC90 ([9]; Homo sapiens): 4290 nM; tumor type selectivity ([9]; colony forming assay, IC70 pattern, FIG. 1): selectivity for colon, breast, ovarian, and uterus tumors; Mean IC70 [9]: 956 nM
CC(=NNc1nc2ccccc2n1C)c1cccc(Cl)n1 [Id-5] | – | – | – | – | – | IC50 ([6]; Table 4, 72 hours): 7 nM; IC50 [1, 13]: 320 nM; IC50 [7]: 20 nM; IC50 ([8]; Table 4, 72 hours): 30 nM; IC50 [4, 14]: 12 nM; IC50 [2, 15]: 190 nM; IC50 [9]: 3300 nM; IC90 [9]: 9380 nM; Mean IC70 [9]: 5740 nM
CC(=NNc1nc2ccccc2n1C)c1ncccc1N(C)C [Id-11] | – | – | – | – | – | IC50 ([6]; Table 4, 72 hours): 8 nM; IC50 [1, 13]: 160 nM; IC50 [7]: 240 nM; IC50 ([8]; Table 4, 72 hours): 60 nM; IC50 [4, 14]: 2 nM; IC50 [2, 15]: 20 nM; IC50 [9]: 137 nM; IC90 [9]: 2900 nM; Mean IC70 [9]: 397 nM
CC(=NNc1nc2ccccc2n1C)c1cc(-c2ccccc2)ccn1 [Id-15] | – | – | – | – | – | IC50 ([6]; Table 4, 72 hours): 140 nM; IC50 [1, 13]: 50 nM; IC50 [7]: 120 nM; IC50 ([8]; Table 4, 72 hours): 230 nM; IC50 [4, 14]: 30 nM; IC50 [2, 15]: 40 nM; IC50 [9]: 429 nM; IC90 [9]: 5670 nM; Mean IC70 [9]: 1017 nM
CC(=NNc1nc2ccccc2n1C)c1ccc(-c2ccccc2)cn1 [Id-16] | – | – | – | – | – | IC50 ([6]; Table 4, 72 hours): 250 nM; IC50 [1, 13]: 250 nM; IC50 [7]: 190 nM; IC50 ([8]; Table 4, 72 hours): 180 nM; IC50 [4, 14]: 30 nM; IC50 [2, 15]: 180 nM; IC50 [9]: 965 nM; IC90 [9]: 7450 nM; Mean IC70 [9]: 2084 nM

Second part, led by results:

IC50 [1, 10] [nM] | IC50 [4, 11] [nM] | IC50 [2, 12] [nM] | IC50 [5] [nM] | IC50 (MEXF 276L (melanoma); read-out: IC50 MEXF276L) [nM] | SMILES | also measured
7760 | 5490 | 4530 | 7040 | > 10000 | CC(=NNc1nc2ccccc2o1)c1ccc2ccccc2n1 [Ib-19] | –
1930 | 200 | 340 | 350 | 1560 | CC(=NNc1nc2ccccc2o1)c1nccc2ccccc12 [Ib-21] | –
420 | 220 | 630 | 200 | 960 | CC(=NNc1nc2ccccc2[nH]1)c1ncccn1 [Ib-25] | –
270 | 30 | 180 | 130 | 700 | CC(=NNc1nc2ccccc2o1)c1ncccn1 [Ib-27] | –
